In ChEMBL document CHEMBL5233266, “β-Carboline as a Privileged Scaffold for Multitarget Strategies in Alzheimer's Disease Therapy” (J Med Chem, 2021):

Assays:
[1] = molecular target: T1, Gamma-aminobutyric acid receptor subunit alpha-1 (Homo sapiens, UniProt P14867); experiment: Binding affinity to human recombinant GABAA alpha1 receptor assessed as inhibition constant incubated for 1 hrs by liquid scintillation counting analysis
T1 sequence (P14867 whole entry): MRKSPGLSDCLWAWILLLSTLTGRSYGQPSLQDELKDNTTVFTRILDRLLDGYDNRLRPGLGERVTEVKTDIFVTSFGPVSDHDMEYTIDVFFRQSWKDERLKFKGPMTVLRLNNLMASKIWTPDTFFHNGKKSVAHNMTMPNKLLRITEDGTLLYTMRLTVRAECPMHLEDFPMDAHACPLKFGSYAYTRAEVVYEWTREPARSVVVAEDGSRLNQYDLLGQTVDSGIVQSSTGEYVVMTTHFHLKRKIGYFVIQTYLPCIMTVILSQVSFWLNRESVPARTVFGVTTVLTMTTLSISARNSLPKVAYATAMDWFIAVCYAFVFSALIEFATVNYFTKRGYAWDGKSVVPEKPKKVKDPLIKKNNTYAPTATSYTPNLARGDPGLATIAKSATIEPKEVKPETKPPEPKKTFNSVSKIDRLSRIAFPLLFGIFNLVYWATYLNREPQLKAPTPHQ

[2] = molecular target: T2, Gamma-aminobutyric acid receptor subunit alpha-2 (Homo sapiens, UniProt P47869); experiment: Binding affinity to human recombinant GABAA alpha2 receptor assessed as inhibition constant incubated for 1 hrs by liquid scintillation counting analysis
T2 sequence (P47869 whole entry): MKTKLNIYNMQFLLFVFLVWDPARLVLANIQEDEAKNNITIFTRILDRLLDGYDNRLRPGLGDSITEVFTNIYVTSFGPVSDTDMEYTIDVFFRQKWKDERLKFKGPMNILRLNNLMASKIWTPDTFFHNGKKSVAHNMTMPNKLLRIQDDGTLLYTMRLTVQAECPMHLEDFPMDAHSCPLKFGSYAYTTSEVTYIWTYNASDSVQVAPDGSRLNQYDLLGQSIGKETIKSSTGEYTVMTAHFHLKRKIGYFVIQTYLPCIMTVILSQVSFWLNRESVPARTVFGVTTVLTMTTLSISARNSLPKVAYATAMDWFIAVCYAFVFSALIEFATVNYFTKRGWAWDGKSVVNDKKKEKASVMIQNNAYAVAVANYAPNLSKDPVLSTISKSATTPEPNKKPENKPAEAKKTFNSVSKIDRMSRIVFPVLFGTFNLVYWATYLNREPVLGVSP

[3] = molecular target: Gamma-aminobutyric acid receptor subunit alpha-6 (Homo sapiens, UniProt Q16445); experiment: Binding affinity to human recombinant GABAA alpha6 receptor assessed as inhibition constant incubated for 1 hrs by liquid scintillation counting analysis
[4] = molecular target: T3, Gamma-aminobutyric acid receptor subunit alpha-5 (Homo sapiens, UniProt P31644); experiment: Binding affinity to human recombinant GABAA alpha5 receptor assessed as inhibition constant incubated for 1 hrs by liquid scintillation counting analysis
T3 sequence (P31644 whole entry): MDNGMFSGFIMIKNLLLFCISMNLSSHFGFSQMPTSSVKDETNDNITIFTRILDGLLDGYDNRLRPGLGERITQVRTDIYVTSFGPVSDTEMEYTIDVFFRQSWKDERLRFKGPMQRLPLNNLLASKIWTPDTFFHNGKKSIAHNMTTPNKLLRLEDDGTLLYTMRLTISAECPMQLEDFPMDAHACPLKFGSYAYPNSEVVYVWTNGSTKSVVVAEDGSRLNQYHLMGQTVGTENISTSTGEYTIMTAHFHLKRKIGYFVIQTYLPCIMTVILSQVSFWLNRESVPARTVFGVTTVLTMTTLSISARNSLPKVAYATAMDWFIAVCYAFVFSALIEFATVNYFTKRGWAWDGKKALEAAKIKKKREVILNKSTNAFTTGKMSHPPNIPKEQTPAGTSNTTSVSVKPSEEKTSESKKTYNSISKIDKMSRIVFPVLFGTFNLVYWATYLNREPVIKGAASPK

[5] = molecular target: T4, Gamma-aminobutyric acid receptor subunit alpha-3 (Homo sapiens, UniProt P34903); experiment: Binding affinity to human recombinant GABAA alpha3 receptor assessed as inhibition constant incubated for 1 hrs by liquid scintillation counting analysis
T4 sequence (P34903 whole entry): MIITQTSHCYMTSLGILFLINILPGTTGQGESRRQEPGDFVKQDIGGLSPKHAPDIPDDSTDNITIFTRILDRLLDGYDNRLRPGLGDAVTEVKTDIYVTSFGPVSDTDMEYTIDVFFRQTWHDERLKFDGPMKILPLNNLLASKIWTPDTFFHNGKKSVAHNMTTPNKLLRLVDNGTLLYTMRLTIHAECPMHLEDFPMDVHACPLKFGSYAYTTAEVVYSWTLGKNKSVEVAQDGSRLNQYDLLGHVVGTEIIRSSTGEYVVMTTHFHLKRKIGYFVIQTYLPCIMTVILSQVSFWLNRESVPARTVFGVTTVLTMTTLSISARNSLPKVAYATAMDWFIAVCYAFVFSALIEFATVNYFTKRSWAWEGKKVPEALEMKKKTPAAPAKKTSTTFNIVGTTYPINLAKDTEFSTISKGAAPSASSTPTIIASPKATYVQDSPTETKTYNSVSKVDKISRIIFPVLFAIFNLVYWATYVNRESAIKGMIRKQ

[6] = molecular target: GABA-A receptor; anion channel; experiment: Displacement of [3H]flunitrazepam from GABAA (unknown origin ) receptor by radioligand binding assay; type: protein-complex assay, Homo sapiens
[7] = molecular target: cGMP-specific 3',5'-cyclic phosphodiesterase (Homo sapiens, UniProt O76074); experiment: Inhibition of PDE5 (unknown origin)
[8] = molecular target: Acetylcholinesterase (Homo sapiens, UniProt P22303); experiment: Inhibition of AChE (unknown origin)
Acetylcholinesterase, sequence (P22303 whole entry): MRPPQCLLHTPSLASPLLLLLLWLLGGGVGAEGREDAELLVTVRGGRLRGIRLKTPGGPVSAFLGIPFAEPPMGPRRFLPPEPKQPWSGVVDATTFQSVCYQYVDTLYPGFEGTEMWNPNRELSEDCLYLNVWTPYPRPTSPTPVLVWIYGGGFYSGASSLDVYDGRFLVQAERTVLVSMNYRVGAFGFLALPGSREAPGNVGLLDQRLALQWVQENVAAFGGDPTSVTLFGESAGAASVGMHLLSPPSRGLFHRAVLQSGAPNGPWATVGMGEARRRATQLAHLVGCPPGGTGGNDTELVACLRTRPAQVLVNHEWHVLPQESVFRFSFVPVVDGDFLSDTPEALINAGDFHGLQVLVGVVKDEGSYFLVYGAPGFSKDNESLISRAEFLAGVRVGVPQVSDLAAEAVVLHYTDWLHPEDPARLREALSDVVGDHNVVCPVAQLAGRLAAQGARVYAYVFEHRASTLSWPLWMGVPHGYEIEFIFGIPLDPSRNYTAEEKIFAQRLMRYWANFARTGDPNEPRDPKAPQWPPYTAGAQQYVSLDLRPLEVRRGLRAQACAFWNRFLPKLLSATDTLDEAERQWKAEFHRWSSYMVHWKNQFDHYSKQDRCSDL

Gamma-aminobutyric acid receptor subunit alpha-6, sequence (Q16445 whole entry): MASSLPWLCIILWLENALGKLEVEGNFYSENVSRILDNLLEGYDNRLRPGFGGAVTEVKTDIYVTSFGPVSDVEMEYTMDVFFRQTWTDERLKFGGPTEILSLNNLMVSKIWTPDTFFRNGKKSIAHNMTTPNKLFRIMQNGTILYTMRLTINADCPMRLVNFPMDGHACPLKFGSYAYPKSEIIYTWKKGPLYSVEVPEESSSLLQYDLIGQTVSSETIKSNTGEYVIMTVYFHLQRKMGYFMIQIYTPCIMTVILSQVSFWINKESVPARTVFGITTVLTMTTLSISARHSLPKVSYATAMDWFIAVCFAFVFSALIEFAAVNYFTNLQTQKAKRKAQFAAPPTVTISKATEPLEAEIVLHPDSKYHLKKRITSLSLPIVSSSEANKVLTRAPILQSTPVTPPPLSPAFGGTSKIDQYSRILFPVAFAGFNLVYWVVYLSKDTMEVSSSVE

## CCCC(=O)c1cc2c(cn1)[nH]c1ccccc12
[1]
  Ki: 2 nM
[2]
  Ki: 16 nM
[3]
  Ki: > 3000 nM
[4]
  Ki: 1000 nM
[5]
  Ki: 21 nM
[6]
  IC50: 3 nM

## CCCOc1ccc2[nH]c3cnc(C(=O)OCC)c(COC)c3c2c1
[1]
  Ki: 0.5 nM
[2]
  Ki: 1 nM
[3]
  Ki: 1300 nM
[4]
  Ki: 2 nM
[5]
  Ki: 2 nM
[6]
  IC50: 0.5 nM

## O=C1C2Cc3c([nH]c4ccccc34)C(c3ccc4c(c3)OCO4)N2C(=O)CN1Cc1ccccc1 (configuration not stated)
[7]
  IC50: 3 nM

## O=C1C2Cc3c([nH]c4ccccc34)[C@@H](c3ccc4c(c3)OCO4)N2C(=O)CN1CCC1CCN(Cc2ccccc2)CC1 (some centres not stated)
[8]
  IC50: 36 nM
[7]
  IC50: 150 nM

## CCOC(=O)c1ncc2[nH]c3cccc(OC(C)C)c3c2c1C
[6]
  IC50: 0.4 nM

## CCOC(=O)c1nc(C)c2[nH]c3cc(OC)c(OC)cc3c2c1CC
[1]
  Ki: 6 nM
[2]
  Ki: 19 nM
[3]
  Ki: 75 nM
[4]
  Ki: 3 nM
[5]
  Ki: 4 nM

## O=C1C2Cc3c([nH]c4ccccc34)C(c3ccc4c(c3)OCO4)N2C(=O)CN1C1CCCCC1 (configuration not stated)
[7]
  IC50: 3 nM

## O=C1[C@H]2Cc3c([nH]c4ccccc34)[C@@H](c3ccc4c(c3)OCO4)N2C(=O)CN1[C@@H]1CCN(Cc2ncc[nH]2)C1
[7]
  IC50: 0.8 nM

## COC(=O)[C@@H]1Cc2c([nH]c3ccccc23)[C@@H](c2ccc(Cl)cc2)N1C(=O)CCl
[7]
  IC50: 2700 nM

## CCN1C(=O)[C@H]2Cc3c([nH]c4ccccc34)[C@@H](c3ccc(Br)s3)N2C1=O
[7]
  IC50: 170 nM

## CCOC(=O)c1cc2c(cn1)[nH]c1ccccc12
[1]
  Ki: 1 nM

## Cn1ccnc1CN1CC[C@@H](N2CC(=O)N3[C@H](c4ccc5c(c4)OCO5)c4[nH]c5ccccc5c4C[C@@H]3C2=O)C1
[7]
  IC50: 0.8 nM

## CCN1C(=O)C2Cc3c([nH]c4ccccc34)C(c3ccc(OC)cc3)N2C1=O (configuration not stated)
[7]
  IC50: 3 nM

## CCN1C(=O)[C@@H]2Cc3c([nH]c4ccccc34)[C@@H](c3ccc(Cl)cc3)N2C1=O
[7]
  IC50: 330 nM

## CCCCN1CC2Cc3c([nH]c4ccccc34)C(c3ccc4c(c3)OCO4)N2C1=O (configuration not stated)
[7]
  IC50: 60 nM

## c1ccc2c(c1)[nH]c1c2ncc2[nH]c3ccccc3c21
[1]
  Ki: 1 nM
[2]
  Ki: 1 nM
[3]
  Ki: > 1000 nM
[4]
  Ki: 40 nM
[5]
  Ki: 1 nM

## CCOC(=O)c1ncc2[nH]c3ccc(O)cc3c2c1COC
[1]
  Ki: 2 nM
[2]
  Ki: 5 nM
[3]
  Ki: 3000 nM
[4]
  Ki: 19 nM
[5]
  Ki: 11 nM
[6]
  IC50: 0.5 nM

## CCOC(=O)c1ncc2[nH]c3ccccc3c2c1COC
[1]
  Ki: 0.6 nM
[2]
  Ki: 3 nM
[3]
  Ki: 1200 nM
[4]
  Ki: 10 nM
[5]
  Ki: 5 nM
[6]
  IC50: 0.5 nM

## CCCOC(=O)c1cc2c(cn1)[nH]c1ccccc12
[6]
  IC50: 1 nM

## COC(=O)c1cc2c(cn1)[nH]c1ccc(NCc3ccccc3)cc12
[1]
  Ki: 5 nM
[2]
  Ki: 30 nM
[3]
  Ki: > 10000 nM
[4]
  Ki: 480 nM
[5]
  Ki: 49 nM
[6]
  IC50: 4 nM

## O=C1[C@@H]2Cc3c([nH]c4ccccc34)[C@@H](c3ccc4c(c3)OCO4)N2C(=O)CN1CCC1CCN(Cc2ccccc2)CC1
[8]
  IC50: 32 nM
[7]
  IC50: 1500 nM

## CC(C)(C)COC(=O)c1cc2c(cn1)[nH]c1ccccc12
[6]
  IC50: 750 nM

## CCc1c(C(=O)OC)nc(C)c2[nH]c3cc(OC)c(OC)cc3c12
[1]
  Ki: 6 nM
[2]
  Ki: 8 nM
[3]
  Ki: 130 nM
[4]
  Ki: 1 nM
[5]
  Ki: 4 nM

## CC(C)N1CC(=O)N2C(Cc3c([nH]c4ccccc34)C2c2ccc3c(c2)OCO3)C1=O (configuration not stated)
[7]
  IC50: 3 nM

## CCCCN1C(=O)[C@@H]2Cc3c([nH]c4ccccc34)[C@@H](c3ccc(Br)cc3)N2C1=O
[7]
  IC50: 40 nM

## CCOC(=O)c1ncc2[nH]c3cccc(OCc4ccccc4)c3c2c1COC
[6]
  IC50: 0.2 nM

## N#Cc1cc2c(cn1)[nH]c1ccccc12
[6]
  IC50: 3 nM

## COC(=O)c1cc2c(cn1)[nH]c1ccc(O)cc12
[6]
  IC50: 4 nM

## COc1ccc(N2CC(=O)N3[C@H](c4ccc5c(c4)OCO5)c4[nH]c5ccccc5c4C[C@@H]3C2=O)cc1
[7]
  IC50: 16 nM

## CCN1C(=O)[C@@H]2Cc3c([nH]c4ccccc34)[C@@H](c3ccc(Br)cc3)N2C1=O
[7]
  IC50: 40 nM

## CN1CCN(C(=O)c2ccc(-c3ccc(C(=O)N4CCc5c([nH]c6ccccc56)C4c4ccc5c(c4)OCO5)o3)cc2)CC1 (configuration not stated)
[7]
  IC50: 8 nM

## COc1ccc([C@@H]2N[C@@H](C(=O)O)Cc3c2n(C)c2ccccc32)cc1OC
[8]
  IC50: 2500 nM

## CCCCN1CC2Cc3c([nH]c4ccccc34)C(c3ccc(OC)cc3)N2C1=O (configuration not stated)
[7]
  IC50: 60 nM

## COc1ccc(C2c3[nH]c4ccccc4c3CC3C(=O)N(C4CCCCC4)C(=O)N32)cc1 (configuration not stated)
[7]
  IC50: 3 nM

## COc1ccc2c3ccnc(C)c3n(CC3CC(c4ccccc4)=NO3)c2c1 (configuration not stated)
[8]
  IC50: 11000 nM

## CCCCN1CC(=O)N2[C@H](c3ccc(Br)cc3)c3[nH]c4ccccc4c3C[C@H]2C1=O
[7]
  IC50: 10 nM

## O=C(O)c1cc2c(cn1)[nH]c1ccccc12
[6]
  IC50: 31000 nM

## COc1ccc2c3c([nH]c2c1N)C(C)NCC3 (configuration not stated)
[8]
  IC50: 2000 nM

## S=C=Nc1cc2c(cn1)[nH]c1ccccc12
[1]
  Ki: 5 nM
[6]
  IC50: 3 nM

## CCOC(=O)c1ncc2[nH]c3ccc(OC)cc3c2c1COC
[1]
  Ki: 0.1 nM
[2]
  Ki: 1 nM
[4]
  Ki: 4 nM
[5]
  Ki: 2 nM
[6]
  IC50: 0.5 nM

## O=C1[C@H]2Cc3c([nH]c4ccccc34)[C@@H](c3ccc4c(c3)OCO4)N2C(=O)CN1[C@@H]1CCN(Cc2cccnc2)C1
[7]
  IC50: 2 nM

## C#CCn1c2cc(OC)ccc2c2ccnc(C)c21
[8]
  IC50: 1900 nM

## CCCCN1CC(=O)N2C(Cc3c([nH]c4ccccc34)C2c2ccc3c(c2)OCO3)C1=O (configuration not stated)
[7]
  IC50: 3 nM
